Test [1] relates to Human RSV-B (genotype B, strain 9320). The test is described as follows: RSV-B assay (qPCR or ATPlite) in A549 cells. Particulars: human respiratory syncytial virus, 144 h, strain 9320, MOI 0.5, 6 days post infection, qPCR or ATPlite readout. The test is classed as cell-based. The source says: Hep-2 cells, (originally derived from tumors grown in irradiated-cortisonised weanling rats that had been injected with epidermoid carcinoma tissue from a person's larynx, but later found to be indistinguishable from HeLa cells by PCR DNA analysis), were used for the culturing of genotype B, strain 9320. Flasks were inoculated with RSV-B and viral stocks were collected once cytopathic effect (CPE) was greater than 90%. Viral stocks in 25% sucrose media were snap frozen using liquid nitrogen to increase viral stability. Viral stock titers were quantified by tissue culture infectious dose 50% (TCID50) using 8,000 cells per well and 5-fold viral dilutions across a 96-well plate, cultured for 4 days. Viral stock titers were also quantified by a plaque forming unit assay, as described elsewhere.
The assay is run as follows: A549 cells (originally derived through explant culture from a person's carcinomatous lung tissue) are seeded into the inner 60 wells of a 96-well plate at 3,000 cells per well in a volume of 50 μL using A549 growth media (F-12K Media, 1% Penn/Strep, 1% nonessential amino acids, 10% heat-inactivated FBS). 2-fold serial dilutions of control and test compounds are added to the wells in duplicate in a total volume of 25 μL. Viral stock is then added to the wells at a multiplicity of infection (MOI) of 0.5 in a volume of 25 μL, bringing the total volume of each well to 100 μL. The MOI is calculated using the PFU/mL, or TCID50 if unavailable. Each 96-well plate has a control column of 6 wells with cells and virus but no compound (negative control, max CPE), a column with cells but no compound or virus (positive control, minimum CPE), and a column with no cells or virus or compound (background plate/reagent control). The control wells with cells but no virus are given an additional 25 μL of growth media containing an equal quantity of sucrose as those wells receiving the viral stock in order to keep consistent in media and volume conditions. The outer wells of the plate are filled with 125 μL of moat media (DMEM, 1% Penn/Strep) to act as a thermal and evaporative moat around the test wells. 6 days post infection, the plates are read using qPCR or ATP lite (50 μL added per well), which quantifies the amount of ATP (a measure of cell health) present in each well. Assay plates treated with APTlite are read using the Envision luminometer. […] EC50 ranges are as follows: A<0.4 μM; B 0.4-0.8 μM; C>0.8 μM.

For test [2], the system named is Human RSV-A (“Long” strain). The test is described as follows: RSV-A assay (CPE, ATPlite) in Hep-2 cells. The class given is cell-based. Particulars: human respiratory syncytial virus, 120 h, MOI 0.1, 5-day incubation, ATPlite readout. The text has this: Hep-2 cells, (originally derived from tumors grown in irradiated-cortisonised weanling rats that had been injected with epidermoid carcinoma tissue from a person's larynx, but later found to be indistinguishable from HeLa cells by PCR DNA analysis), were used for the culturing of genotype A, “Long” strain RSV. Flasks were inoculated with RSV and viral stocks were collected once cytopathic effect (CPE) was greater than 90%. Viral stocks in 25% sucrose media were snap frozen using liquid nitrogen to increase viral stability. Viral stock titers were quantified by tissue culture infectious dose 50% (TCID50) using 8,000 cells per well and 3-fold viral dilutions across a 96-well plate, cultured for 4 days. Viral stock titers were also quantified by a plaque forming unit assay, as described elsewhere.
Following extensive parameter testing, the final assay is run as follows: Hep-2 cells are seeded into the inner 60 wells of a 96-well plate at 8,000 cells per well in a volume of 50 μL using Growth Media (DMEM without phenol red, 1% L-Glut, 1% Penn/Strep, 1% nonessential amino acids, 10% heat-inactivated FBS). 2-fold serial dilutions of control and test compounds are added to the wells in duplicate in a total volume of 25 μL. Viral stock is then added to the wells at a multiplicity of infection (MOI) of 0.1 in a volume of 25 μL, bringing the total volume of each well to 100 μL. The MOI is calculated using the PFU/mL, or TCID50 if unavailable. Each 96-well plate has a control column of 6 wells with cells and virus but no compound (negative control, max CPE), a column with cells but no compound or virus (positive control, minimum CPE), and a column with no cells or virus or compound (background plate/reagent control). The control wells with cells but no virus are given an additional 25 μL of growth media containing an equal quantity of sucrose as those wells receiving the viral stock in order to keep consistent in media and volume conditions. The outer wells of the plate are filled with 125 μL of moat media (DMEM, 1% Penn/Strep) to act as a thermal and evaporative moat around the test wells. Following a 5-day incubation period, the plates are read using ATPlite (50 μL added per well), which quantifies the amount of ATP (a measure of cell health) present in each well. Assay plates are read using the Envision luminometer. In parallel, cytotoxicity is examined on an additional 96-well plate treated in an identical manner, but substituting the 25 μL of viral stock for 25 μL of growth media. […] EC50 ranges are as follows: A<0.4 μM; B 0.4-0.8 μM; C>0.8 μM.
In general terms: ATP-based viability assays read luminescence as a measure of living cells.

Here are results for 9 compounds from US11912695B2, “Benzodiazepine derivatives as RSV inhibitors” (ENANTA PHARMACEUTICALS, INC., priority 2019, dated 2024).

Each structure is given as a SMILES string.

The EC50 is the concentration that produces a half-maximal response.

On to `Cc1nc(-c2nnc(N[C@H]3N=C(c4ccccc4)c4cccc(F)c4NC3=O)o2)c(-c2cnc(C3CC3)nc2)s1` [Example 41], for which the EC50 in test [1] and in test [2] was less than 400 nM in each case.
As to `CCc1nc(-c2nnc(N[C@@H]3N=C(c4ccccc4)c4cccc(F)c4NC3=O)o2)c(-c2cnc(C3CC3)nc2)s1` [Example 53], the figures for the EC50 in test [1] and in test [2] were less than 400 nM and 400 to 800 nM, respectively.
In the case of `O=C1Nc2ccccc2C(c2ccccc2)=N[C@@H]1Nc1nnc(-c2ncc(C(F)(F)F)cc2-c2cnc(C3CC3)nc2)o1` [Example 25], the EC50 in test [1] and in test [2] was less than 400 nM in each case.
For `Cc1ncc(-c2sc(C3(C)CC3)nc2-c2nnc(N[C@H]3N=C(c4ccccc4)c4cccc(F)c4NC3=O)o2)cn1` [Example 67], the EC50 in test [1] and in test [2] was less than 400 nM in each case.
`O=C1Nc2c(F)cccc2C(c2ccccc2)=N[C@H]1Nc1nnc(-c2nc(C3CC3)sc2-c2cnc(C3CC3)nc2)o1` [Example 47]: the EC50 in test [1] and in test [2] was less than 400 nM throughout.
As to `O=C1Nc2ccccc2C(c2ccccc2)=N[C@@H]1Nc1nnc(-c2ncc(CO)cc2-c2cnc(C3CC3)nc2)o1` [Example 97], the EC50 in test [1] and in test [2] was less than 400 nM each time.
Take `Cc1ncc(-c2cc(C(F)(F)F)cnc2-c2nnc(N[C@H]3N=C(c4ccccc4)c4ccccc4NC3=O)o2)cn1` [Example 26]: the EC50 in test [1] and in test [2] was less than 400 nM each time.
For `CCc1ncc(-c2sc(C3(C(F)(F)F)CC3)nc2-c2nnc(N[C@@H]3N=C(c4ccccc4)c4cccc(F)c4NC3=O)o2)cn1` [Example 62], the results for the EC50 in test [1] and in test [2] were less than 400 nM and 400 to 800 nM, respectively.
The corresponding values for `O=C1Nc2ccccc2C(c2ccccc2)=NC1Nc1nnc(-c2nc(C(F)(F)F)sc2-c2cnc(C3CC3)nc2)o1` (stereo not drawn) [Example 34] are less than 400 nM and less than 400 nM.
